In patent US6969719B2, “Polycyclic guanine phosphodiesterase V inhibitors” (Schering Corporation, priority 2001, dated 2005):
Where “and” joins values, the source holds several entries; their conditions need not be identical. Equal values may be shown once.

target: PDE V (Homo sapiens, UniProt O76074); test: PDE V isoenzyme inhibition (IC50); type: biochemical; conditions: concentration required to provide 50% inhibition of PDE V
Excerpt: The compounds of the invention can be useful for inhibiting PDE V isoenzymes. Isoenzyme activities and isoenzyme selectivities for particular compounds can be evaluated in a number of ways.

IC50 | Structure (SMILES)
≤ 10 nM | CCN1C(=O)c2c(nc(NC3CCOCC3)n2Cc2ccc(O)c(Br)c2)N2CCN=C12 [Compound 1]
< 8 nM | CCN1C(=O)c2c(nc(NC3CCOCC3)n2Cc2ccc(O)c(Cl)c2)N2CCN=C12 [Compound 2]
≤ 10 nM | CCN1C(=O)c2c(nc(Br)n2Cc2cc(Br)c3c(c2)CCO3)N2C[C@@H](Cc3ccccc3)N=C12 [Compound 3]
≤ 6 nM | CCN1C(=O)c2c(nc(C(=O)OC)n2Cc2cc(Cl)c3c(c2)CCO3)N2C[C@@H](Cc3ccccc3)N=C12 [Compound 4]
≤ 6 nM | CCN1C(=O)c2c(nc(NC3CCCCC3)n2Cc2ccc(O)c(Cl)c2)N2C1=N[C@@H]1CCC[C@@H]12 [Compound 5]
≤ 5 nM | CCN1C(=O)c2c(ncn2Cc2cc(Cl)c3c(c2)CCO3)N2C[C@@H](Cc3ccccc3)N=C12 [Compound 6]
≤ 5 nM | CCN1C(=O)c2nc(C#Cc3ccccc3)n(Cc3ccc(OC(C)=O)cc3)c2N2CC3(CCCC3)N=C12 [Compound 7]
≤ 5 nM | CCN1C(=O)c2c(nc(C(N)=O)n2Cc2cc(Br)c3c(c2)CCO3)N2C[C@@H](Cc3ccccc3)N=C12 [Compound 8]
≤ 5 nM | CCN1C(=O)c2c(nc(NC3CCCCC3)n2Cc2ccc(O)c(Br)c2)N2C[C@@H](Cc3ccccc3)N=C12 [Compound 9]
≤ 5 nM | CCN1C(=O)c2c(nc(C(N)=O)n2Cc2cc(Cl)c3c(c2)CCO3)N2C[C@@H](Cc3ccccc3)N=C12 [Compound 10]
≤ 5 nM | CCN1C(=O)c2c(nc(C=NO)n2Cc2ccc(O)c(Cl)c2)N2C[C@@H](Cc3ccccc3)N=C12 [Compound 11]
≤ 5 nM | CCN1C(=O)c2c(nc(NC3CCCCC3)n2Cc2ccc(O)c(Br)c2)N2C1=N[C@@H]1CCC[C@@H]12 [Compound 12]
≤ 5 nM | CCN1C(=O)c2c(nc(OCc3ccccc3)n2Cc2ccc(O)c(Cl)c2)N2C[C@@H](Cc3ccccc3)N=C12 [Compound 13]
≤ 5 nM | CCN1C(=O)c2c(nc(NC3CCCCC3)n2Cc2ccc(OC)c(Br)c2)N2CCN=C12 [Compound 14]
≤ 5 nM | CCN1C(=O)c2c(nc(Br)n2Cc2cc(Cl)c3c(c2)CCO3)N2C[C@@H](Cc3ccccc3)N=C12 [Compound 15]
≤ 10 nM and ≤ 5 nM and ≤ 6 nM and ~1.5 nM | CCN1C(=O)c2c(nc(NC3CCOCC3)n2Cc2ccc(OC)c(Cl)c2)N2CCN=C12 [Compound 16]
≤ 5 nM | CCN1C(=O)c2c(nc(NC3CCCCC3)n2Cc2ccc(OC)c(Br)c2)N2C1=N[C@@H]1CCC[C@@H]12 [Compound 17]

IC50 | Structure (SMILES)
≤ 5 nM | CCN1C(=O)c2c(nc(NC3CCOCC3)n2Cc2ccc(OC)c(Br)c2)N2CCN=C12 [Compound 18]
≤ 5 nM | CCN1C(=O)c2c(nc(C#Cc3ccccc3)n2Cc2ccc(O)c(Cl)c2)N2C[C@@H](Cc3ccccc3)N=C12 [Compound 19]
≤ 5 nM | CCN1C(=O)c2c(nc(NC3CCOCC3)n2Cc2ccc(OC)c(Br)c2)N2CCCN=C12 [Compound 20]
≤ 10 nM | CCN1C(=O)c2c(nc(NC3CCOCC3)n2Cc2ccc(OC)c(Cl)c2)N2CCCN=C12 [Compound 21]
≤ 5 nM | CCN1C(=O)c2nc(C#Cc3ccccc3)n(Cc3ccc(O)cc3)c2N2CC3(CCCC3)N=C12 [Compound 22]
~52 nM | CCN1C(=O)c2c(nc(NC3CCOCC3)n2Cc2ccc(O)c(C)c2)N2CCN=C12 [Compound 30]
≤ 10 nM and ~10 nM | CCN1C(=O)c2c(nc(OC)n2Cc2ccc(OC)c(C#N)c2)N2C[C@@H](Cc3ccccc3)N=C12 [Compound 34]
~18 nM | CCN1C(=O)c2c(nc(NC3CCOCC3)n2Cc2cc(Cl)c3c(c2)CCO3)N2CCN=C12 [Compound 35]
~18 nM | CCN1C(=O)c2c(nc(NC3CCOCC3)n2Cc2cc(Br)c3c(c2)CCO3)N2CCN=C12 [Compound 36]
≤ 5 nM | CCN1C(=O)c2c(nc(NC3CCCCC3)n2Cc2ccc(OC)c(Cl)c2)N2CCN=C12 [Compound 42]
≤ 5 nM | CCN1C(=O)c2c(nc(NC3CCCC3)n2Cc2ccc(OC)c(Cl)c2)N2CCN=C12 [Compound 43]
≤ 5 nM | CCN1C(=O)c2c(nc(C#Cc3ccccc3)n2Cc2cc(Cl)c(OC)c(Cl)c2)N2CC3(CCCC3)N=C12 [Compound 44]
≤ 5 nM | CCOc1nc2c(n1Cc1ccc(O)c(Br)c1)C(=O)N(CC)C1=N[C@H](Cc3ccccc3F)CN12 [Compound 54]
≤ 5 nM | CCN1C(=O)c2c(nc(N[C@@H]3CCC[C@H]3O)n2Cc2ccc(OC)c(Br)c2)N2C1=NCC2C (stereo partly drawn) [Compound 56]
≤ 10 nM | CCN1C(=O)c2c(nc(NC3CCSCC3)n2Cc2ccc(OC)c(Cl)c2)N2CCN=C12 [Compound 57]
≤ 5 nM | CCN1C(=O)c2c(nc(NC3CCSCC3)n2Cc2ccc(OC)c(Br)c2)N2CCN=C12 [Compound 58]
≤ 10 nM | CCN1C(=O)c2c(nc(N[C@@H]3CC[C@H](O)C3)n2Cc2ccc(OC)c(Br)c2)N2CCN=C12 [Compound 59]

same assay, conditions: enzyme selectivity, PDE V relative to PDE VI

ratio of PDE VI IC50/PDE V IC50 | Structure (SMILES)
> 600 | CCN1C(=O)c2c(nc(NC3CCOCC3)n2Cc2ccc(O)c(Cl)c2)N2CCN=C12 [Compound 2]
> 190 | CCN1C(=O)c2c(nc(NC3CCOCC3)n2Cc2ccc(O)c(C)c2)N2CCN=C12 [Compound 30]
